This is an account of results in patent US20080221092A1, “Heterobicyclic metalloprotease inhibitors” (priority 2006, published 2008).

For test [1], the target named is T1, catalytic domain of MMP-3 enzyme (Homo sapiens, UniProt P08254).
T1 construct: stock solution of the catalytic domain of MMP-3 enzyme (Biomol, Cat. No. SE-109); purchased Biomol SE-109
Nature of the test: Assay for determining MMP-3 inhibition (fluorescent substrate NFF-3). Format: biochemical. Particulars: read-out: Summary of MMP-3 Activity for Compounds (IC50 MMP-3, group). The method, then:
Assay for Determining MMP-3 Inhibition
The typical assay for MMP-3 activity is carried out in assay buffer comprised of 50 mM MES, pH 6.0, 10 mM CaCl2 and 0.05% Brij-35. Different concentrations of tested compounds are prepared in assay buffer in 50 μl aliquots. 10 μl of a 100 nM stock solution of the catalytic domain of MMP-3 enzyme (Biomol, Cat. No. SE-109) is added to the compound solution. The mixture of enzyme and compound in assay buffer is thoroughly mixed and incubated for 10 min at room temperature. Upon the completion of incubation, the assay is started by addition of 40 μl of a 12.5 μM stock solution of NFF-3 fluorescent substrate (Calbiochem, Cat. No. 480455). The time-dependent increase in fluorescence is measured at the 330 nm excitation and 390 nm emission by an automatic plate multireader. The IC50 values are calculated from the initial reaction rates.

The target of test [2] is T2, catalytic domain of MMP-13 enzyme (Homo sapiens, UniProt P45452).
T2 construct: stock solution of catalytic domain of MMP-13 enzyme (produced by Alantos or commercially available from Invitek); purchased Invitek (Berlin) 30100812
Nature of the test: Assay for determining MMP-13 inhibition (fluorescent substrate). Format: biochemical. Particulars: read-out: Summary of MMP-13 Activity for Compounds (IC50 MMP-13, group). On the procedure:
Assay for Determining MMP-13 Inhibition
The typical assay for MMP-13 activity is carried out in assay buffer comprised of 50 mM Tris, pH 7.5, 150 mM NaCl, 5 mM CaCl2 and 0.05% Brij-35. Different concentrations of tested compounds are prepared in assay buffer in 50 μl aliquots. 10 μl of a 50 nM stock solution of catalytic domain of MMP-13 enzyme (produced by Alantos or commercially available from Invitek (Berlin), Cat. No. 30100812) is added to the compound solution. The mixture of enzyme and compound in assay buffer is thoroughly mixed and incubated for 10 min at room temperature. Upon the completion of incubation, the assay is started by addition of 40 μl of a 12.5 μM stock solution of MMP-13 fluorescent substrate (Calbiochem, Cat. No. 444235). The time-dependent increase in fluorescence is measured at the 320 nm excitation and 390 nm emission by automatic plate multireader. The IC50 values are calculated from the initial reaction rates.

T1 sequence (P08254 100-272 limits assumed): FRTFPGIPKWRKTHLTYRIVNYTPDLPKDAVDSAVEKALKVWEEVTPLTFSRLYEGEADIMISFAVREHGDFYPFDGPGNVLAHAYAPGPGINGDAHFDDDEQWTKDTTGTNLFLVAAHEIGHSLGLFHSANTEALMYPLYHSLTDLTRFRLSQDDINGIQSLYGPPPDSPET

Consider `CC(C)(C)OC(=O)Nc1c[nH]c2c(C(=O)NCc3ccc4c(c3)NC(=O)CO4)ncnc12` [Example 1], for which, in test [1], the IC50 fell in the range of 101 to 20000 nM.
Consider `O=C(NCc1ccc(F)c(Cl)c1)c1ncnc2c(Br)c[nH]c12` [Example 4], for which the IC50 in test [1] and in test [2] was 101 to 20000 nM each time.
Regarding `O=C(NCc1ccc(F)cc1)c1ncnc2c(Br)c[nH]c12` [Example 5], the IC50 in test [1] and in test [2] was 101 to 20000 nM throughout.
On to `O=C1COc2ccc(CNC(=O)c3ncnc4c([N+](=O)[O-])c[nH]c34)cc2N1` [Example 6], for which the IC50 in test [1] and in test [2] was 101 to 20000 nM throughout.
As for `O=C(NCc1ccc(F)c(Cl)c1)c1ncnc2c([N+](=O)[O-])c[nH]c12` [Example 7], the IC50 in test [1] and in test [2] was 101 to 20000 nM throughout.
Take `CCOC(=O)c1c[nH]c2c(C(=O)NCc3ccc4c(c3)NC(=O)CO4)ncnc12` [Example 8]: the results for the half-inhibitory concentration (IC50) in test [1] and in test [2] were 3 to 100 nM and 101 to 20000 nM, respectively.
As to `O=C1COc2ccc(CNC(=O)c3ncnc4nc[nH]c34)cc2N1` [Example 9], the IC50 in test [1] and in test [2] was 101 to 20000 nM each time.
`O=C1COc2ccc(CNC(=O)c3ncnc4cc[nH]c34)cc2N1` [Example 13]: the IC50 in test [1] and in test [2] was 101 to 20000 nM each time.
Consider `Nc1c[nH]c2c(C(=O)NCc3ccc4c(c3)NC(=O)CO4)ncnc12` [Example 15], for which the half-maximal inhibitory concentration (IC50) in test [1] and in test [2] was 101 to 20000 nM in each case.
Turning to `O=C(O)c1c[nH]c2c(C(=O)NCc3ccc(F)cc3)ncnc12` [Example 19], the IC50 in test [1] and in test [2] was 101 to 20000 nM in each case.
As for `O=C(O)c1c[nH]c2c(C(=O)NCc3ccc(F)c(Cl)c3)ncnc12` [Example 20], the concentration for half-maximal inhibition (IC50) in test [1] and in test [2] was 101 to 20000 nM each time.
`O=C1COc2ccc(CNC(=O)c3ncnc4c(C(=O)O)c[nH]c34)cc2N1` [Example 21]: the half-inhibitory concentration (IC50) was 3 to 100 nM in test [1] and 101 to 20000 nM in test [2].
Consider `Nc1n[nH]c2c(C(=O)NCc3ccc(F)c(Cl)c3)ncnc12` [Example 22], for which the half-maximal inhibitory concentration (IC50) in test [1] and in test [2] was 101 to 20000 nM each time.
Regarding `Nc1n[nH]c2c(C(=O)NCc3ccc4c(c3)NC(=O)CO4)ncnc12` [Example 23], the results for the IC50 in test [1] and in test [2] were 101 to 20000 nM and 3 to 100 nM, respectively.
In the case of `CS(=O)(=O)Nc1c[nH]c2c(C(=O)NCc3ccc4c(c3)NC(=O)CO4)ncnc12` [Example 25], the 50% inhibitory concentration (IC50) fell in the range of 3 to 100 nM in test [1] and 101 to 20000 nM in test [2].
Regarding `O=C1COc2ccc(CNC(=O)c3ncnc4c(NS(=O)(=O)c5cccs5)c[nH]c34)cc2N1` [Example 26], the 50% inhibitory concentration (IC50) in test [1] and in test [2] was 101 to 20000 nM throughout.
Regarding `O=C1COc2ccc(CNC(=O)c3ncnc4c(NS(=O)(=O)Cc5ccccc5)c[nH]c34)cc2N1` [Example 27], the IC50 in test [1] and in test [2] was 101 to 20000 nM each time.
Regarding `O=C1COc2ccc(CNC(=O)c3ncnc4c(NS(=O)(=O)c5ccc(Cl)cc5)c[nH]c34)cc2N1` [Example 28], the 50% inhibitory concentration (IC50) in test [1] and in test [2] was 101 to 20000 nM each time.

What is called IC50 is the point on the concentration scale where inhibition reaches its midpoint.
